Results reported in US20230365592A1 (Agios Pharmaceuticals, Inc., priority 2022, published 2023).

Biological target: T1, human PAH with the R408W mutation (Homo sapiens, UniProt P00439, R408W)
T1 construct: expressed in transfected cells
T1 sequence (P00439 1-452 R408W): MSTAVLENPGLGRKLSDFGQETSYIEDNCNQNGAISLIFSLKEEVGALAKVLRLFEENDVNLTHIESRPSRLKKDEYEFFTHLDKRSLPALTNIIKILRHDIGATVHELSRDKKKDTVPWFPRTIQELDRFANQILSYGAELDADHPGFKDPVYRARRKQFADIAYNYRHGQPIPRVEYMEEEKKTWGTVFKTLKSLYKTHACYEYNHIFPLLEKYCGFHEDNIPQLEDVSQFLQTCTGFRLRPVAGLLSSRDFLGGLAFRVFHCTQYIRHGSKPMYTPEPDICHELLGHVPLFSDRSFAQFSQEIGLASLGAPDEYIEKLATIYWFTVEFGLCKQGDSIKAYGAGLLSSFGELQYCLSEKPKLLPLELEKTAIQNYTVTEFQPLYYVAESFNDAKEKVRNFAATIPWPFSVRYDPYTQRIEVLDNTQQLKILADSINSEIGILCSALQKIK
Test: Cell Based Phenylalanine Flux Assay;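 further: after compound treatment, cells received sepiapterin plus isotope-labelled Phenylalanine for 4 hours, then labelled Tyrosine in the medium was quantified, 10-point 2-fold dilution series run in duplicate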
Conditions: A375 cells expressing R408W PAH; 24 hrs with compound, then 20 µM sepiapterin and 800 µM 13C9,15N-Phenylalanine for 4 hours; 13C-Tyrosine by LC-MS; average where tested multiple times; read-out: AC50

AC50 [nM]	Structure (SMILES)
> 5000	Cc1cccc2cc(C3c4nc[nH]c4CCN3C(=O)c3nc(C(F)(F)F)nn3C)nn12 (centres unmarked)
1000 to 5000	CC(C)(O)c1nnc(C(=O)N2CCc3[nH]cnc3C2c2cc3cccc(Cl)n3n2)o1 (centres unmarked)
1000 to 5000	CN(C)c1ccc2c(C(=O)N3CCc4[nH]cnc4C3c3cc4cccc(C(F)F)n4n3)cnn2c1 (centres unmarked)
> 5000	Cn1ccc(-c2nnc(C(=O)N3CCc4[nH]cnc4C3c3cc4cc(F)ccn4n3)o2)n1 (centres unmarked)
1000 to 5000	Cn1cncc1-c1nnc(C(=O)N2CCc3[nH]cnc3C2c2cc3cccc(C(F)F)n3n2)o1 (centres unmarked)
1000 to 5000	Cc1cccc2cc(C3c4nc[nH]c4CCN3C(=O)c3cnn4cc(C5CC5)ccc34)nn12 (centres unmarked)

Same assay, conditions: A375 cells expressing human PAH R408W; 24 hrs compound incubation; 13C-Tyrosine by LC-MS; average where tested multiple times; read-out: AC50

Structure (SMILES)	AC50 [nM]
FC(F)(F)c1nnc(N2CCc3[nH]cnc3[C@H]2c2cc3c(Cl)cccn3n2)o1 [Example 1849, (S)-2-(4-(4-chloropyrazolo[1,5-a]pyridin-2-yl)-6,7-dihydro-1H-imidazo[4,5-c]pyridin-5(4H)-yl)-5-(trifluoromethyl)-1,3,4-oxadiazole]	< 500
Cc1cc(-c2nnc(C(=O)N3CCc4[nH]cnc4[C@H]3c3cc4c(C5CC5)cccn4n3)o2)nn1C [Example 1933, (S)-(4-(4-cyclopropylpyrazolo[1,5-a]pyridin-2-yl)-1,4,6,7-tetrahydro-5H-imidazo[4,5-c]pyridin-5-yl)(5-(1,5-dimethyl-1H-pyrazol-3-yl)-1,3,4-oxadiazol-2-yl)methanone]	500 to 1000
Cn1ccc(-c2nnc(C(=O)N3CCc4[nH]cnc4[C@H]3c3cc4c(C5CC5)cccn4n3)o2)n1 [Example 1900, (S)-(4-(4-cyclopropylpyrazolo[1,5-a]pyridin-2-yl)-1,4,6,7-tetrahydro-5H-imidazo[4,5-c]pyridin-5-yl)(5-(1-methyl-1H-pyrazol-3-yl)-1,3,4-oxadiazol-2-yl)methanone]	< 500
CCc1cccn2nc([C@H]3c4nc[nH]c4CCN3C(=O)c3nnc(-c4cnn(C)c4)o3)cc12 [Example 1925, (R)-(4-(4-ethylpyrazolo[1,5-a]pyridin-2-yl)-1,4,6,7-tetrahydro-5H-imidazo[4,5-c]pyridin-5-yl)(5-(1-methyl-1H-pyrazol-4-yl)-1,3,4-oxadiazol-2-yl)methanone]	> 5000

Next, values leading:

AC50 [nM]	Structure (SMILES)
500 to 1000	Cc1cccn2nc([C@@H]3c4nc[nH]c4CCN3c3nnc(-c4ncccc4F)o3)cc12 [Example 2341, (S)-2-(3-fluoropyridin-2-yl)-5-(4-(4-methylpyrazolo[1,5-a]pyridin-2-yl)-1,4,6,7-tetrahydro-5H-imidazo[4,5-c]pyridin-5-yl)-1,3,4-oxadiazole]
1000 to 5000	O=C(c1nnc(-c2ccccn2)o1)N1CCc2[nH]cnc2[C@H]1c1cc2ccc(C(F)(F)F)cn2n1 [Example 2414, (S)-(5-(pyridin-2-yl)-1,3,4-oxadiazol-2-yl)(4-(6-(trifluoromethyl)pyrazolo[1,5-a]pyridin-2-yl)-6,7-dihydro-1H-imidazo[4,5-c]pyridin-5(4H)-yl)methanone]
> 5000	FC(F)(F)c1nnc(N2CCc3[nH]cnc3[C@@H]2c2cc3c(C4CC4)cccn3n2)o1 [Example 2056, (R)-2-(4-(4-cyclopropylpyrazolo[1,5-a]pyridin-2-yl)-1,4,6,7-tetrahydro-5H-imidazo[4,5-c]pyridin-5-yl)-5-(trifluoromethyl)-1,3,4-oxadiazole]
> 5000	O=C(c1nc2ccccc2o1)N1CCc2[nH]cnc2[C@@H]1c1cc2c(F)cccn2n1 [Example 2051, (R)-benzo[d]oxazol-2-yl(4-(4-fluoropyrazolo[1,5-a]pyridin-2-yl)-1,4,6,7-tetrahydro-5H-imidazo[4,5-c]pyridin-5-yl)methanone]
1000 to 5000	COc1cccn2nc([C@@H]3c4nc[nH]c4CCN3C(=O)c3nc(C)nn3C)cc12 [Example 2393, (S)-(1,3-dimethyl-1H-1,2,4-triazol-5-yl)(4-(4-methoxypyrazolo[1,5-a]pyridin-2-yl)-6,7-dihydro-1H-imidazo[4,5-c]pyridin-5(4H)-yl)methanone]
> 5000	CC(C)c1cccn2nc([C@H]3c4nc[nH]c4CCN3c3nnc(-c4ccncn4)o3)cc12 [Example 2181, (R)-2-(4-(4-isopropylpyrazolo[1,5-a]pyridin-2-yl)-1,4,6,7-tetrahydro-5H-imidazo[4,5-c]pyridin-5-yl)-5-(pyrimidin-4-yl)-1,3,4-oxadiazole]
500 to 1000	Cc1cccc(-c2nnc(N3CCc4[nH]cnc4[C@H]3c3cc4c(C)cccn4n3)o2)n1 [Example 2345, (S)-2-(4-(4-methylpyrazolo[1,5-a]pyridin-2-yl)-1,4,6,7-tetrahydro-5H-imidazo[4,5-c]pyridin-5-yl)-5-(6-methylpyridin-2-yl)-1,3,4-oxadiazole]
< 500	FC(F)(F)Oc1cccn2nc([C@@H]3c4nc[nH]c4CCN3c3nnc(C(F)(F)F)o3)cc12 [Example 2253, (S)-2-(4-(4-(trifluoromethoxy)pyrazolo[1,5-a]pyridin-2-yl)-1,4,6,7-tetrahydro-5H-imidazo[4,5-c]pyridin-5-yl)-5-(trifluoromethyl)-1,3,4-oxadiazole]
> 5000	Cc1c(-c2ncc(C(=O)N3CCc4[nH]cnc4[C@@H]3c3cc4c(F)cccn4n3)o2)cnn1C [Example 2067, (R)-(2-(1,5-dimethyl-1H-pyrazol-4-yl)oxazol-5-yl)(4-(4-fluoropyrazolo[1,5-a]pyridin-2-yl)-1,4,6,7-tetrahydro-5H-imidazo[4,5-c]pyridin-5-yl)methanone]

Same assay, conditions: A375 cells expressing human R408W PAH; 24 hrs compound incubation; 13C-Tyrosine by LC-MS; average where tested multiple times; read-out: AC50

AC50 [nM]	Structure (SMILES)
> 5000	Cc1cccc2cc([C@H]3c4nc[nH]c4CCN3C(=O)c3nnc(-c4cnn(C)c4)o3)nn12 [Example 801, (R)-(5-(1-methyl-1H-pyrazol-4-yl)-1,3,4-oxadiazol-2-yl)(4-(7-methylpyrazolo[1,5-a]pyridin-2-yl)-6,7-dihydro-1H-imidazo[4,5-c]pyridin-5(4H)-yl)methanone]
1000 to 5000	Cc1cccc2cc([C@H]3c4nc[nH]c4CCN3C(=O)c3oc(C(C)(C)F)nc3C(F)F)nn12 [Example 1231, (R)-(4-(difluoromethyl)-2-(2-fluoropropan-2-yl)oxazol-5-yl)(4-(7-methylpyrazolo[1,5-a]pyridin-2-yl)-6,7-dihydro-1H-imidazo[4,5-c]pyridin-5(4H)-yl)methanone]
> 5000	Cc1cccn2nc([C@H]3c4nc[nH]c4CCN3C(=O)c3nnc(-c4cnccn4)o3)cc12 [Example 956, (R)-(4-(4-methylpyrazolo[1,5-a]pyridin-2-yl)-6,7-dihydro-1H-imidazo[4,5-c]pyridin-5(4H)-yl)(5-(pyrazin-2-yl)-1,3,4-oxadiazol-2-yl)methanone]
1000 to 5000	O=C(c1nnc(-c2ccn(C(F)(F)F)n2)o1)N1CCc2[nH]cnc2[C@@H]1c1cc2cccc(C(F)F)n2n1 [Example 1545, (R)-(4-(7-(difluoromethyl)pyrazolo[1,5-a]pyridin-2-yl)-6,7-dihydro-1H-imidazo[4,5-c]pyridin-5(4H)-yl)(5-(1-(trifluoromethyl)-1H-pyrazol-3-yl)-1,3,4-oxadiazol-2-yl)methanone]
> 5000	O=C(c1nnc(-c2ccc(C(F)(F)F)cn2)o1)N1CCc2[nH]cnc2[C@@H]1c1cc2c(F)cccn2n1 [Example 878, (R)-(4-(4-fluoropyrazolo[1,5-a]pyridin-2-yl)-6,7-dihydro-1H-imidazo[4,5-c]pyridin-5(4H)-yl)(5-(5-(trifluoromethyl)pyridin-2-yl)-1,3,4-oxadiazol-2-yl)methanone]
> 5000	Cc1cccn2nc([C@H]3c4nc[nH]c4CCN3C(=O)c3nnc(N4CCC(F)CC4)o3)cc12 [Example 1013, (R)-(5-(4-fluoropiperidin-1-yl)-1,3,4-oxadiazol-2-yl)(4-(4-methylpyrazolo[1,5-a]pyridin-2-yl)-6,7-dihydro-1H-imidazo[4,5-c]pyridin-5(4H)-yl)methanone]
< 500	FC(F)(F)c1cnc(N2CCc3[nH]cnc3[C@H]2c2cc3c(Cl)cccn3n2)nc1 [Example 1780, (S)-4-(4-chloropyrazolo[1,5-a]pyridin-2-yl)-5-(5-(trifluoromethyl)pyrimidin-2-yl)-4,5,6,7-tetrahydro-1H-imidazo[4,5-c]pyridine]
1000 to 5000	CC(C)(C)c1nnc(C(=O)N2CCc3[nH]cnc3[C@@H]2c2cc3c(C(F)(F)F)cccn3n2)o1 [Example 949, (R)-(5-(tert-butyl)-1,3,4-oxadiazol-2-yl)(4-(4-(trifluoromethyl)pyrazolo[1,5-a]pyridin-2-yl)-6,7-dihydro-1H-imidazo[4,5-c]pyridin-5(4H)-yl)methanone]
< 500	O=C(c1nnc(-c2ncccc2F)o1)N1CCc2[nH]cnc2[C@H]1c1cc2c(OC(F)(F)F)cccn2n1 [Example 1679, (S)-(5-(3-fluoropyridin-2-yl)-1,3,4-oxadiazol-2-yl)(4-(4-(trifluoromethoxy)pyrazolo[1,5-a]pyridin-2-yl)-6,7-dihydro-1H-imidazo[4,5-c]pyridin-5(4H)-yl)methanone]
500 to 1000	Cc1ncoc1C(=O)N1CCc2[nH]cnc2[C@H]1c1cc2cccc(Cl)n2n1 [Example 1174, (S)-(4-(7-chloropyrazolo[1,5-a]pyridin-2-yl)-6,7-dihydro-1H-imidazo[4,5-c]pyridin-5(4H)-yl)(4-methyloxazol-5-yl)methanone]
